Laboratory results: PubChem BioAssay (NCI)
Several values for one entry are separate records, joined by “and”; a condition that tells them apart may be missing. Equal entries are not always repeated.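 A five-concentration, 48-hour dose response in 96-well plates underlies each endpoint, interpolated linearly between surrounding concentrations. The concentration for 50% growth inhibition is given as GI50. TGI: total growth inhibition.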

Assays:
Experiment in all cases: growth of human tumour cells (NCI), 48 h
SN12C renal = system: SN12C renal
NCI-H226 lung = system: NCI-H226 lung
HOP-92 NSCLC = system: HOP-92 NSCLC
SF-295 CNS = system: SF-295 CNS
U251 CNS = system: U251 CNS
EKVX NSCLC = system: EKVX NSCLC
KM12 colon = system: KM12 colon
SK-MEL-28 melanoma = system: SK-MEL-28 melanoma
OVCAR-8 ovarian = system: OVCAR-8 ovarian
HCT-15 colon = system: HCT-15 colon

## C=CCn1c(-c2cc(C(C)(C)C)c(O)c(C(C)(C)C)c2)cs/c1=N\C(P(=O)(O)O)P(=O)(O)O
SN12C renal
  TGI: > 100 µM
NCI-H226 lung
  TGI: > 100 µM
HOP-92 NSCLC
  TGI: > 100 µM
SF-295 CNS
  TGI: > 100 µM
U251 CNS
  TGI: > 100 µM
EKVX NSCLC
  TGI: > 100 µM
KM12 colon
  TGI: > 100 µM
SK-MEL-28 melanoma
  TGI: > 100 µM
OVCAR-8 ovarian
  TGI: > 100 µM
HCT-15 colon
  TGI: > 100 µM

## Cc1cc(OCc2nc(N)nc(N)c2-c2ccc(Cl)c(Cl)c2)ccc1[N+](=O)[O-]
SN12C renal
  TGI: 25.9 µM
NCI-H226 lung
  TGI: 28.6 µM
HOP-92 NSCLC
  TGI: > 60 µM
SF-295 CNS
  TGI: 4.72 µM
U251 CNS
  TGI: 12.3 µM
EKVX NSCLC
  TGI: 45 µM
KM12 colon
  TGI: 33.8 µM
SK-MEL-28 melanoma
  TGI: 40.8 µM
OVCAR-8 ovarian
  TGI: 34 µM
HCT-15 colon
  TGI: 27.4 µM

## Cc1ccc(S(=O)(=O)NC(=O)Nc2c(S(N)(=O)=O)cc(S(N)(=O)=O)c(Cl)c2Cl)cc1
SN12C renal
  TGI: > 100 µM
NCI-H226 lung
  TGI: > 100 µM
HOP-92 NSCLC
  TGI: > 100 µM
SF-295 CNS
  TGI: > 100 µM
U251 CNS
  TGI: > 100 µM
EKVX NSCLC
  TGI: > 100 µM
KM12 colon
  TGI: > 100 µM
SK-MEL-28 melanoma
  TGI: > 100 µM
OVCAR-8 ovarian
  TGI: > 100 µM
HCT-15 colon
  TGI: > 100 µM

## COc1ccc(-c2nc(-c3ccc(OC)cc3)n(-c3ccccc3)n2)cc1
SN12C renal
  TGI: > 100 µM
NCI-H226 lung
  TGI: > 100 µM
HOP-92 NSCLC
  TGI: > 100 µM
SF-295 CNS
  TGI: > 100 µM
U251 CNS
  TGI: > 100 µM
EKVX NSCLC
  TGI: > 100 µM
KM12 colon
  TGI: > 100 µM
SK-MEL-28 melanoma
  TGI: > 100 µM
OVCAR-8 ovarian
  TGI: > 100 µM
HCT-15 colon
  TGI: > 100 µM

## COc1ccc(/C=C2/N=C(N/N=C\C(O)C(O)C(O)CO)NC2=O)cc1 (configuration not stated)
SN12C renal
  TGI: > 100 µM
NCI-H226 lung
  TGI: > 100 µM
HOP-92 NSCLC
  TGI: > 100 µM
SF-295 CNS
  TGI: > 100 µM
U251 CNS
  TGI: > 100 µM
EKVX NSCLC
  TGI: > 100 µM
KM12 colon
  GI50: > 100 µM and 26.9 µM
  TGI: > 100 µM
SK-MEL-28 melanoma
  GI50: > 100 µM and 31.3 µM
  TGI: > 100 µM
OVCAR-8 ovarian
  TGI: > 100 µM
HCT-15 colon
  TGI: > 100 µM

## CC[C@H](C)[C@H](NC(=O)N(CCC#N)CCN(CCN(C(=O)N[C@@H](Cc1ccccc1)C(=O)OC)c1ccccc1)C(=O)N[C@H](C(=O)OC)C(C)C)C(=O)OC
SN12C renal
  TGI: 54.5 µM
NCI-H226 lung
  TGI: 48.8 µM
HOP-92 NSCLC
  TGI: 23.3 µM
SF-295 CNS
  TGI: 37.9 µM
U251 CNS
  TGI: 36.1 µM
EKVX NSCLC
  TGI: 69.2 µM
KM12 colon
  TGI: 39.7 µM
SK-MEL-28 melanoma
  TGI: 29.7 µM
OVCAR-8 ovarian
  TGI: 65.4 µM
HCT-15 colon
  TGI: 51.6 µM

## c1ccc2c(c1)nnn2CNc1ccc(N2CCCCC2)cc1
SN12C renal
  TGI: > 100 µM
NCI-H226 lung
  TGI: > 100 µM
HOP-92 NSCLC
  TGI: > 100 µM
SF-295 CNS
  TGI: > 100 µM
U251 CNS
  TGI: > 100 µM
EKVX NSCLC
  TGI: > 100 µM
KM12 colon
  TGI: > 100 µM
SK-MEL-28 melanoma
  TGI: > 100 µM
OVCAR-8 ovarian
  TGI: > 100 µM
HCT-15 colon
  TGI: > 100 µM

## CCOC(=O)Oc1cc2ccsc2c2c1c1ccccc1n2C(=O)OCC
SN12C renal
  TGI: > 100 µM
NCI-H226 lung
  TGI: > 100 µM
HOP-92 NSCLC
  TGI: 44.7 µM
SF-295 CNS
  TGI: > 100 µM
U251 CNS
  TGI: > 100 µM
EKVX NSCLC
  TGI: > 100 µM
KM12 colon
  TGI: > 100 µM
SK-MEL-28 melanoma
  TGI: > 100 µM
OVCAR-8 ovarian
  TGI: > 100 µM
HCT-15 colon
  TGI: > 100 µM

## COc1ccccc1C1C2=C(COC2=O)Oc2cc3c(cc21)OCO3 (configuration not stated)
SN12C renal
  TGI: > 100 µM
NCI-H226 lung
  TGI: > 100 µM
HOP-92 NSCLC
  TGI: 97.7 µM
SF-295 CNS
  TGI: 12.6 µM
U251 CNS
  TGI: > 100 µM
EKVX NSCLC
  TGI: > 42.8 µM
KM12 colon
  TGI: > 100 µM
SK-MEL-28 melanoma
  TGI: > 76 µM
OVCAR-8 ovarian
  TGI: > 56.2 µM
HCT-15 colon
  TGI: > 84.6 µM

## c1ccc(-c2csc3c2-n2cccc2C3N2CCCC2)cc1 (configuration not stated)
SN12C renal
  TGI: > 100 µM
NCI-H226 lung
  TGI: > 100 µM
HOP-92 NSCLC
  TGI: 81.9 µM
SF-295 CNS
  TGI: > 100 µM
U251 CNS
  TGI: > 100 µM
EKVX NSCLC
  TGI: > 100 µM
KM12 colon
  TGI: > 100 µM
SK-MEL-28 melanoma
  TGI: > 100 µM
OVCAR-8 ovarian
  TGI: > 100 µM
HCT-15 colon
  TGI: > 100 µM

## N/C(=N\N=C\c1cc2ccccc2s1)c1cnccn1
SN12C renal
  TGI: > 100 µM
NCI-H226 lung
  TGI: > 100 µM
HOP-92 NSCLC
  TGI: > 100 µM
SF-295 CNS
  TGI: > 100 µM
U251 CNS
  TGI: > 100 µM
EKVX NSCLC
  TGI: > 100 µM
KM12 colon
  TGI: > 100 µM
SK-MEL-28 melanoma
  TGI: > 100 µM
OVCAR-8 ovarian
  TGI: > 100 µM
HCT-15 colon
  TGI: > 100 µM

## O=c1oc2ccc([N+](=O)[O-])cc2nc1/C=C(\O)c1ccccc1
SN12C renal
  TGI: > 100 µM
NCI-H226 lung
  TGI: > 100 µM
HOP-92 NSCLC
  TGI: > 100 µM
SF-295 CNS
  TGI: > 100 µM
U251 CNS
  TGI: > 100 µM
EKVX NSCLC
  TGI: > 100 µM
KM12 colon
  TGI: > 100 µM
SK-MEL-28 melanoma
  TGI: > 100 µM
OVCAR-8 ovarian
  TGI: > 100 µM
HCT-15 colon
  TGI: > 100 µM

## Oc1ccc(-c2c3ccccc3c(-c3ccc(O)cc3)c3ccccc23)cc1
SN12C renal
  TGI: > 100 µM
NCI-H226 lung
  TGI: > 100 µM
HOP-92 NSCLC
  TGI: > 100 µM
SF-295 CNS
  TGI: > 100 µM
U251 CNS
  TGI: > 100 µM
EKVX NSCLC
  TGI: > 100 µM
KM12 colon
  TGI: > 100 µM
SK-MEL-28 melanoma
  TGI: > 100 µM
OVCAR-8 ovarian
  TGI: > 100 µM
HCT-15 colon
  TGI: > 100 µM

## OC1(c2ccccc2)CC2CCC(C1)N2CCCC(O)(c1ccccc1)c1ccccc1 (configuration not stated)
SN12C renal
  TGI: 39.1 µM
NCI-H226 lung
  TGI: 29 µM
HOP-92 NSCLC
  TGI: 18.9 µM
SF-295 CNS
  TGI: 10.6 µM
U251 CNS
  TGI: 28.7 µM
EKVX NSCLC
  TGI: 38.3 µM
KM12 colon
  TGI: 30.3 µM
SK-MEL-28 melanoma
  TGI: 32.9 µM
OVCAR-8 ovarian
  TGI: 36.1 µM
HCT-15 colon
  TGI: 27.3 µM

## CC1(CO)C(O)CCC2(C)C1CCC1CC3CC12CCC3(O)CO (configuration not stated)
SN12C renal
  TGI: > 100 µM
NCI-H226 lung
  TGI: > 89.8 µM
HOP-92 NSCLC
  TGI: > 100 µM
SF-295 CNS
  TGI: > 100 µM
U251 CNS
  TGI: > 100 µM
EKVX NSCLC
  TGI: > 100 µM
KM12 colon
  TGI: > 100 µM
SK-MEL-28 melanoma
  TGI: > 100 µM
OVCAR-8 ovarian
  TGI: > 100 µM
HCT-15 colon
  TGI: > 100 µM
